SMILES strings stand for the structures.

The assay concerns the target deoxycytidine kinase (dCK) (Homo sapiens, UniProt P27707). In words: HTS hit. It is filed as cell-based.

As for `COc1ccc(Br)cc1-c1nc(CSc2nc(N)cc(N)n2)cs1` [DI-0120], the IC50 (commonly the concentration that inhibits the measured activity by half) stood at 1400 nM.

These data come from article PMC3949575 (The Journal of Experimental Medicine, 2014).
